Data taken from patent US10287255B2, “Compounds as histone deacetylase 6 inhibitors and pharmaceutical compositions comprising the same” (CHONG KUN DANG PHARMACEUTICAL CORP., priority 2014, dated 2019).

How the values were obtained:
[1] = target: T1, human recombinant HDAC1 (Homo sapiens, UniProt Q13547); assay: HDAC1 enzyme activity inhibition assay (in vitro, fluorimetric); type: biochemical; details: human recombinant HDAC1, fluorimetric kit, 30° C. 60 minutes
T1 construct: purchased Enzo Life Science BML-SE456
T1 sequence (Q13547 whole entry): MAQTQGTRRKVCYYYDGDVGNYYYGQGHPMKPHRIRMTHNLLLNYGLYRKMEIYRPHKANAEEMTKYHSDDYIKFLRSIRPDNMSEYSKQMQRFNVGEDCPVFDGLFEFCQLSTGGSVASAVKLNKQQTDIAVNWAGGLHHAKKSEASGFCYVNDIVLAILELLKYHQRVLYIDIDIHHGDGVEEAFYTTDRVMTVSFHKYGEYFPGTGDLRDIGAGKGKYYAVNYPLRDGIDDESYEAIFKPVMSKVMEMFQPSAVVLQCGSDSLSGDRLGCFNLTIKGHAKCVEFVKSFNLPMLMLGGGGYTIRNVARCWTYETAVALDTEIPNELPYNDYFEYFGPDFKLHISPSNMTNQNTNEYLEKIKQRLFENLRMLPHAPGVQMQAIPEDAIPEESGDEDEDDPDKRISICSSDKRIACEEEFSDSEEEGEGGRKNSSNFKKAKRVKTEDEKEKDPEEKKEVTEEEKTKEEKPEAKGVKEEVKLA
Summary of the method: (§1)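 Human recombinant enzyme (0.3 μg for HDAC1) reacted with 10 μM Fluor de Lys-SIRT1 substrate and 5-fold compound dilutions at 30 °C for 60 min, then developer for 30 min. Fluorescence read at Ex 360/Em 460; IC50 calculated. HDAC6 run by the same protocol.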

[2] = target: T2, human recombinant HDAC6 (Homo sapiens, UniProt Q9UBN7); assay: HDAC6 enzyme activity inhibition assay (in vitro, fluorimetric); type: biochemical; details: for HDAC6 selectivity (fold): HDAC6 selectivity over HDAC1; for IC50: human recombinant HDAC6, fluorimetric kit, same protocol as HDAC1
T2 construct: purchased Calbiochem 382180
T2 sequence (Q9UBN7 1-1215): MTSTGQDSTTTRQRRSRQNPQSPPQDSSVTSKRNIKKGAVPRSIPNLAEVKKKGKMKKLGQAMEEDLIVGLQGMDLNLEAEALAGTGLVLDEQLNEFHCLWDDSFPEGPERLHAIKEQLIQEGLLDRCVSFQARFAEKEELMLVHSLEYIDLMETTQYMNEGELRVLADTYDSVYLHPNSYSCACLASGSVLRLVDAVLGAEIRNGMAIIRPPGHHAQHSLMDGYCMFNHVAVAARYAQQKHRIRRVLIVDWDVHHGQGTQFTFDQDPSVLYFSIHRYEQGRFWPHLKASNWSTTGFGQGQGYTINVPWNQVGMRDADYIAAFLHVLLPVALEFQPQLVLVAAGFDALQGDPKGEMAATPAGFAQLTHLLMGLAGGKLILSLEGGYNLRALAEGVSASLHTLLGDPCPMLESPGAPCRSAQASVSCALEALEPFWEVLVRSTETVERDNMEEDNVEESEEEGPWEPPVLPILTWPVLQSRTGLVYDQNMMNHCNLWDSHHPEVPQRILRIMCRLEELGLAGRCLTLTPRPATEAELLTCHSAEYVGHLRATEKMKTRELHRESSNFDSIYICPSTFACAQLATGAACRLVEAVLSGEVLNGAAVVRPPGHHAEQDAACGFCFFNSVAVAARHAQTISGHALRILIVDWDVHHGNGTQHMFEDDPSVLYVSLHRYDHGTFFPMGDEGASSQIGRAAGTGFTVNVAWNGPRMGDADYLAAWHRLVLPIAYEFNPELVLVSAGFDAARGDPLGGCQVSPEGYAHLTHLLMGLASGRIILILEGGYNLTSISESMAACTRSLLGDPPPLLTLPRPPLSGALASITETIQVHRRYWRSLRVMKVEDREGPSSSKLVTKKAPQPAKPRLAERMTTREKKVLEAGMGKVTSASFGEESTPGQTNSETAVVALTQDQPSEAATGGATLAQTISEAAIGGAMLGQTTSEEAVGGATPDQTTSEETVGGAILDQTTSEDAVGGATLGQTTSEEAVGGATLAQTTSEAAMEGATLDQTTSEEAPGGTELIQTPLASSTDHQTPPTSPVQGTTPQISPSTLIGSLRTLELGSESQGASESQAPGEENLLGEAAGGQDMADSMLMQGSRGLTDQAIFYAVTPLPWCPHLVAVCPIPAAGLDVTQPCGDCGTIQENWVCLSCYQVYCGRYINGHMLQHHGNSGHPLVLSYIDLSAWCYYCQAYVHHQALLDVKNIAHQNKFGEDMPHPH
Summary of the method: as §1

Row | SMILES | IC50 [1] | HDAC6 selectivity (fold) [2] | IC50 [2]
1 | C[C@@H]1CN(Cc2ccc(C(=O)NO)cc2)C[C@H](C)N1C(=O)CCc1ccccc1 [Compound 188, 4-(((3R,5S)-3,5-dimethyl-4-(3-phenylpropanoyl)piperazin-1-yl)methyl)-N-hydroxybenzamide] | 13600 nM | 71 fold | 191 nM
2 | C[C@@H]1CN(Cc2ccc(C(=O)NO)cc2)C[C@H](C)N1Cc1ccccc1-c1cccnc1 [Compound 330, 4-(((3R,5S)-3,5-dimethyl-4-(2-(pyridin-3-yl)benzyl)piperazin-1-yl)methyl)-N-hydroxybenzamide] | 18000 nM | 749 fold | 24 nM
3 | C[C@@H]1CN(Cc2ccc(/C=C/C(=O)NO)cc2)C[C@H](C)N1Cc1ccccc1 [Compound 172, (E)-3-(4-(((3R,5S)-4-benzyl-3,5-dimethylpiperazin-1-yl)methyl)phenyl)-N-hydroxyacrylamide] | 1300 nM | 35 fold | 38 nM
4 | C[C@@H]1CN(Cc2ccc(C(=O)NO)cc2)C[C@H](C)N1C(=O)c1ccccc1-c1cccnc1 [Compound 286, 4-(((3R,5S)-3,5-dimethyl-4-(2-(pyridin-3-yl)benzoyl)piperazin-1-yl)methyl)-N-hydroxybenzamide] | 13100 nM | 81 fold | 161 nM
5 | CC(c1ccccc1)N1C[C@@H](C)N(Cc2ccc(C(=O)NO)cc2)[C@@H](C)C1 (stereo partly drawn) [Compound 220, 4-(((2S,6R)-2,6-dimethyl-4-(1-phenylethyl)piperazin-1-yl)methyl)-N-hydroxybenzamide] | 15900 nM | 13 fold | 1230 nM
6 | C[C@@H]1CN(C(=O)c2ccccc2Cl)C[C@H](C)N1Cc1ccc(C(=O)NO)cc1 [Compound 108, 4-(((2S,6R)-4-(2-chlorobenzoyl)-2,6-dimethylpiperazin-1-yl)methyl)-N-hydroxybenzamide] | 13100 nM | 79 fold | 166 nM
7 | C[C@@H]1CN(Cc2ccc(C(=O)NO)cc2)C[C@H](C)N1Cc1cccc(C2=CCC(C)(C)CC2)c1 [Compound 347, 4-(((3R,5S)-4-((4′,4′-dimethyl-2′,3′,4′,5′-tetrahydro-[1,1′-biphenyl]-3-yl)methyl)-3,5-dimethylpiperazin-1-yl)methyl)-N-hydroxybenzamide] | > 10000 nM | >25 fold | 408 nM
8 | C[C@@H]1CN(Cc2ccc(C(=O)NO)cc2)C[C@H](C)N1Cc1ccccc1C1=CCOCC1 [Compound 332, 4-(((3R,5S)-4-(2-(3,6-dihydro-2H-pyran-4-yl)benzyl)-3,5-dimethylpiperazin-1-yl)methyl)-N-hydroxybenzamide] | 21900 nM | 207 fold | 106 nM
9 | C[C@@H]1CN(Cc2ccc(C(=O)NO)cc2)C[C@H](C)N1Cc1ccccc1 [Compound 084, 4-(((3R,5S)-4-benzyl-3,5-dimethylpiperazin-1-yl)methyl)-N-hydroxybenzamide] | 11900 nM |  | 23 nM
10 | C[C@@H]1CN(Cc2ccc(C(=O)NO)cc2)C[C@H](C)N1Cc1cccc(-c2ccncc2)c1 [Compound 345, 4-(((3R,5S)-3,5-dimethyl-4-(3-(pyridin-4-yl)benzyl)piperazin-1-yl)methyl)-N-hydroxybenzamide] | 5500 nM | 341 fold | 16 nM
11 | C[C@@H]1CN(Cc2ccc(N(C)C)cc2)C[C@H](C)N1Cc1ccc(C(=O)NO)cc1 [Compound 299, 4-(((2S,6R)-4-(4-(dimethylamino)benzyl)-2,6-dimethylpiperazin-1-yl)methyl)-N-hydroxybenzamide] | 1200 nM | 5 fold | 243 nM
12 | C[C@@H]1CN(C(=O)NCc2ccccc2)C[C@H](C)N1Cc1ccc(C(=O)NO)cc1 [Compound 168, (3R,5S)-N-benzyl-4-(4-(hydroxycarbamoyl)benzyl)-3,5-dimethylpiperazine-1-carboxamide] | 2200 nM | 7 fold | 316 nM
13 | C[C@@H]1CN(Cc2ccc(C(=O)NO)cc2)C[C@H](C)N1Cc1ccccc1-c1ccco1 [Compound 327, 4-(((3R,5S)-4-(2-(furan-2-yl)benzyl)-3,5-dimethylpiperazin-1-yl)methyl)-N-hydroxybenzamide] | > 10000 nM | >43 fold | 235 nM

Now from value to compound:

Row | IC50 [1] | HDAC6 selectivity (fold) [2] | IC50 [2] | SMILES
14 | 10900 nM | 105 fold | 104 nM | C[C@@H]1CN(Cc2ccc(C(=O)NO)cc2)C[C@H](C)N1C(=O)c1cccc(CN2CCOCC2)c1 [Compound 439, 4-(((3R,5S)-3,5-dimethyl-4-(3-(morpholinomethyl)benzoyl)piperazin-1-yl)methyl)-N-hydroxybenzamide]
15 | 1100 nM | 36 fold | 32 nM | C[C@@H]1CN(Cc2ccc(C(=O)NO)cc2)C[C@H](C)N1Cc1ccc(CN2CC(F)(F)C2)cc1 [Compound 412, 4-(((3R,5S)-4-(4-((3,3-difluoroazetidin-1-yl)methyl)benzyl)-3,5-dimethylpiperazin-1-yl)methyl)-N-hydroxybenzamide]
16 | 1000 nM | 2 fold | 467 nM | C[C@@H]1CN(C(=O)c2cccc(CN3CCCC3)c2)C[C@H](C)N1Cc1ccc(/C=C/C(=O)NO)cc1 [Compound 480, (E)-3-(4-(((2S,6R)-2,6-dimethyl-4-(3-(pyrrolidin-1-ylmethyl)benzoyl)piperazin-1-yl)methyl)phenyl)-N-hydroxyacrylamide]
17 | 20000 nM | 690 fold | 29 nM | C[C@@H]1CN(Cc2ccc(C(=O)NO)cc2)C[C@H](C)N1Cc1ccc(CN2CCN(C)CC2)cc1 [Compound 468, 4-(((3R,5S)-3,5-dimethyl-4-(4-((4-methylpiperazin-1-yl)methyl)benzyl)piperazin-1-yl)methyl)-N-hydroxybenzamide]
18 | 9000 nM | 109 fold | 83 nM | C[C@@H]1CN(Cc2ccc(C(=O)NO)cc2)C[C@H](C)N1Cc1ccc(OCC2CCN(CC(C)(C)F)CC2)cc1 [Compound 388, 4-(((3R,5S)-4-(4-((1-(2-fluoro-2-methylpropyl)piperidin-4-yl)methoxy)benzyl)-3,5-dimethylpiperazin-1-yl)methyl)-N-hydroxybenzamide]
19 | 1100 nM | 4 fold | 296 nM | CCN(CC)Cc1cccc(C(=O)N2C[C@@H](C)N(Cc3ccc(/C=C/C(=O)NO)cc3)[C@@H](C)C2)c1 [Compound 487, (E)-3-(4-(((2S,6R)-4-(3-((diethylamino)methyl)benzoyl)-2,6-dimethylpiperazin-1-yl)methyl)phenyl)-N-hydroxyacrylamide]
20 | 19600 nM | 151 fold | 130 nM | CC(C)N1CC=C(c2ccccc2CN2[C@H](C)CN(Cc3ccc(C(=O)NO)cc3)C[C@@H]2C)CC1 [Compound 484, N-hydroxy-4-(((3R,5S)-4-(2-(1-isopropyl-1,2,3,6-tetrahydropyridin-4-yl)benzyl)-3,5-dimethylpiperazin-1-yl)methyl)benzamide]
21 | 3800 nM | 25 fold | 149 nM | C[C@@H]1CN(Cc2ccc(C(=O)NO)cc2)C[C@H](C)N1C(=O)c1ccc(CN2CCCCC2)cc1 [Compound 459, 4-(((3R,5S)-3,5-dimethyl-4-(4-(piperidin-1-ylmethyl)benzoyl)piperazin-1-yl)methyl)-N-hydroxybenzamide]
22 | > 10000 nM | >79 fold | 126 nM | CC(=O)N1CCN(Cc2ccc(CN3[C@H](C)CN(Cc4ccc(C(=O)NO)cc4)C[C@@H]3C)cc2)CC1 [Compound 486, 4-(((3R,5S)-4-(4-((4-acetylpiperazin-1-yl)methyl)benzyl)-3,5-dimethylpiperazin-1-yl)methyl)-N-hydroxybenzamide]
